Laboratory results as given in patent US20240173389A1, “Compositions and Methods For Reducing Immune Intolerance” (LAPIX THERAPEUTICS, INC., priority 2021, published 2024).

Assays:
TLR2 = assay: TNF-α production by splenocytes in response to TLR2 ligand PGN; format: cell-based, C57BL/6 mice; details: 48 hours, OPLT 1.85 μg/ml, dexamethasone 100 μg/ml, rapamycin 625 μg/ml
Experimental: (§1) OPLT was dissolved in sterile PBS at 100 μM, and pH was adjusted to approximately 7.5. Splenocytes from naïve C57BL/6 mice were stained with CFSE, prepared, cultured, and dosed. Cells were seeded at 2×10^5 cells/well.
(§2) To evaluate the effects of OPLT on cytokine production by splenocytes in response to different TLR ligands, splenocytes were incubated with one of the following TLR ligands in triplicate: PGN, LPS, ODN CPG, dsRNA, or ssRNA, as per group assignment. Cells were then treated as follows: • Control: No treatment; • OPLT: Cells were dosed with 1.85 μg/ml; • Dexamethasone: Cells were dosed with 100 μg/ml; • Rapamycin: Cells were dosed with 625 μg/ml. Cells were incubated for 48 hours before collecting the supernatant for TNF-α analysis.
(§3) The supernatant was collected for TNF-α analysis by ELISA.

TLR3 = assay: TNF-α production by splenocytes in response to TLR3 ligand poly(I:C); format: cell-based, C57BL/6 mice; details: 48 hours, OPLT 1.85 μg/ml, dexamethasone 100 μg/ml, rapamycin 625 μg/ml
Experimental: as §1, §2, §3

TLR4 = assay: TNF-α production by splenocytes in response to TLR4 ligand LPS; format: cell-based, C57BL/6 mice; details: 48 hours, OPLT 1.85 μg/ml, dexamethasone 100 μg/ml, rapamycin 625 μg/ml
Experimental: as §1, §2, §3

TLR7 = assay: TNF-α production by splenocytes in response to TLR7 ligand ssPolyU; format: cell-based, C57BL/6 mice; details: 48 hours, OPLT 1.85 μg/ml, dexamethasone 100 μg/ml, rapamycin 625 μg/ml
Experimental: as §1, §2, §3

TLR9 = assay: TNF-α production by splenocytes in response to TLR9 ligand ODN CpG; format: cell-based, C57BL/6 mice; details: 48 hours, OPLT 1.85 μg/ml, dexamethasone 100 μg/ml, rapamycin 625 μg/ml
Experimental: as §1, §2, §3

Splenocytes = assay: Splenocyte culture with anti-CD3/anti-CD28 without antigen, Foxp3+/CD4+ by flow cytometry (Example 4); format: cell-based; details: 100 μM, three days, anti-CD3/anti-CD28, absence of any antigen
Experimental: Splenocytes were cultured for three days in presence of anti-CD3/anti-CD28 in presence of 100 μM PS or 100 μM OPLT in absence of any antigen.

[1] = tested on: RAW264.7 mouse monocyte macrophage cells; assay: SAR screen in RAW 264.7 cells with FVIII antigen, TNF-α ELISA (Example 5); format: cell-based; details: for TNF-α induction: liposomal (DMPC 70:30) or free form dosed 0.001-100 μM
From the text: (§4) RAW264.7 mouse monocyte macrophage cells were exposed to an increasing concentration of selected compounds in the presence of human plasma-derived FVIII as a model antigen protein. TNF-α and TGF-β production were monitored.
All molecules were formulated in RPMI media in aseptic conditions. The pH was adjusted to approximately 7.5 before dosing cells. 1,2-dimyristoyl-sn-glycero-3-phosphocholine (DM PC):PS liposomes were made at 70:30 molar ratio to make “PS” liposomes.
(§5) RAW 264.7 cells were prepared, cultured, and dosed. Cells were seeded at 4×10^5 cells/well. OPLS, OPLT and L-homocysteic acid (LHA) were dosed at 100, 85, 70, 60, 50, 30, 10, 3, 1, 0.3, 0.1, 0.03 and 0.01 mM, or at 100, 85, 70, 60, 50, 30, 10, 3 and 1 mM, as indicated. O-Benzyl-L-serine (OBLS), S-phenyl-L-cysteine (SPLC), S-benzyl-L-cysteine (SBLC) and OBLT were dosed at 100, 85, 70, 60, 50, 30, 10, 3, 1, 0.3, 0.1, 0.03, 0.01, 0.003 and 0.001 μM. Finally, 100 μl of 40 μg/ml of FVIII as a sample antigen was added to each cell. LPS and free protein were used as positive and baseline controls, respectively. TNF-α and TGF-β ELISA were conducted as per the manufacturer's instructions (R & D Systems).

B57BL6 Mice = assay: Anti-FVIII titer analysis in mice given FVIII co-mixed with compound SC QW 4 weeks, then FVIII re-challenge (Example 1); format: in vivo; details: end of treatment after one-week washout
Experimental: (§6) OPLT was dissolved in sterile PBS, and pH was adjusted to approximately 7.5. OPLS, a comparator compound, was dissolved in sterile PBS, and pH was adjusted to approximately 7.5. FVIII in PBS was used as a control. For treatment, FVIII was co-mixed with OPLT, OPLS or diluted in PBS before administration, as per group assignment for each animal. For re-challenge, FVIII was administered alone SC to all animals regardless of group assignment. […] For a head-to-head comparison, 5 mg/injection was selected for OPLT. FVIII was dosed at 1 μg/injection.
The study was conducted in two parts: a treatment phase and a re-challenge phase. The objective of the treatment phase was to test the ability of OPLT to reduce the immunogenicity of FVIII as an antigen compared to animals administered FVIII or FVIII+OPLS. Animals were injected with FVIII, FVIII+OPLT, or FVIII+OPLS SC QW for 4 weeks. Blood samples were collected for anti-FVIII titer analysis after a one-week washout period from the last dose. The objective of the re-challenge phase of the study was to evaluate the duration of tolerance. Animals that have been successfully tolerized toward FVIII will not mount a robust immune response towards FVIII upon subsequent exposure to FVIII. After the washout period, animals were injected with (1 μg) FVIII SC QW for 2 weeks. Blood samples were collected one week after each FVIII injection for anti-FVIII titer analysis.

FoxP3+/CD4+ T-cell = assay: Ex vivo flow cytometry of splenocytes for FoxP3+/CD4+ T-cells after FVIII treatment period (Example 1); format: in vivo, mice
Experimental: as §6
One week after the last dose in the treatment period, one animal from each group was selected at random for ex vivo analysis of the T-cell population. Spleens were collected and a single-cell suspension was prepared for cellular phenotyping by flow cytometry. Cells were stained and gated for CD4+ T-cells. FoxP3 expression level was evaluated for each animal.

[2] = tested on: RAW264.7 mouse monocyte macrophage cells; assay: SAR screen in RAW 264.7 cells with FVIII antigen, TGF-β ELISA (Example 5); format: cell-based; details: free compounds dosed in mM range
From the text: as §4
All molecules were formulated in RPMI media in aseptic conditions. The pH was adjusted to approximately 7.5 before dosing cells. 1,2-dimyristoyl-sn-glycero-3-phosphocholine (DM PC):PS liposomes were made at 70:30 molar ratio to make “PS” liposomes. The remaining liposomes were made by hydrating a DMPC lipid layer in PBS buffer containing a test compound to give a final molar ratio of 70:30 of DMPC:test compound.
as §5

CO[C@H]1C[C@@H]2CC[C@@H](C)[C@@](O)(O2)C(=O)C(=O)N2CCCC[C@H]2C(=O)O[C@H]([C@H](C)C[C@@H]2CC[C@@H](O)[C@H](OC)C2)CC(=O)[C@H](C)/C=C(\C)[C@@H](O)[C@@H](OC)C(=O)[C@H](C)C[C@H](C)/C=C/C=C/C=C/1C [Rapamycin, rapamycin]
TNF-α mean (TLR2; PGN 0 ng/ml): 0 pg/mL | TNF-α mean (TLR2; PGN 1 ng/ml, CTL 730): 0 pg/mL | TNF-α mean (TLR2; PGN 10 ng/ml, CTL 725): 0 pg/mL | TNF-α mean (TLR2; PGN 100 ng/ml, CTL 834): 0 pg/mL | TNF-α mean (TLR3; PolyI:C 0 ng/ml): 0 pg/mL | TNF-α mean (TLR3; PolyI:C 1 ng/ml, CTL 0): 0 pg/mL | TNF-α mean (TLR3; PolyI:C 10 ng/ml, CTL 109): 0 pg/mL | TNF-α mean (TLR3; PolyI:C 100 ng/ml, CTL 162): 0 pg/mL | TNF-α mean (TLR4; LPS 0 ng/ml): 0 pg/mL | TNF-α mean (TLR4; LPS 1 ng/ml, CTL 143): 0 pg/mL | TNF-α mean (TLR4; LPS 10 ng/ml, CTL 840): 0 pg/mL | TNF-α mean (TLR4; LPS 100 ng/ml, CTL 1091): 0 pg/mL | TNF-α mean (TLR7; Poly U 0 ng/ml): 0 pg/mL | TNF-α mean (TLR7; Poly U 1 ng/ml, CTL 44): 0 pg/mL | TNF-α mean (TLR7; Poly U 10 ng/ml, CTL 51): 29 pg/mL | TNF-α mean (TLR7; Poly U 100 ng/ml, CTL 229): 14 pg/mL | TNF-α mean (TLR9; ODN CpG 0 ng/ml): 0 pg/mL | TNF-α mean (TLR9; ODN CpG 1 ng/ml, CTL 0): 0 pg/mL | TNF-α mean (TLR9; ODN CpG 10 ng/ml, CTL 338): 0 pg/mL | TNF-α mean (TLR9; ODN CpG 100 ng/ml, CTL 1220): 0 pg/mL

C[C@@H]1C[C@H]2[C@@H]3CCC4=CC(=O)C=C[C@]4(C)[C@@]3(F)[C@@H](O)C[C@]2(C)[C@@]1(O)C(=O)CO [Dexamethasone, dexamethasone]
TNF-α mean (TLR2; PGN 0 ng/ml): 0 pg/mL | TNF-α mean (TLR2; PGN 1 ng/ml, CTL 730): 0 pg/mL | TNF-α mean (TLR2; PGN 10 ng/ml, CTL 725): 0 pg/mL | TNF-α mean (TLR2; PGN 100 ng/ml, CTL 834): 0 pg/mL | TNF-α mean (TLR3; PolyI:C 0 ng/ml): 0 pg/mL | TNF-α mean (TLR3; PolyI:C 1 ng/ml, CTL 0): 0 pg/mL | TNF-α mean (TLR3; PolyI:C 10 ng/ml, CTL 109): 0 pg/mL | TNF-α mean (TLR3; PolyI:C 100 ng/ml, CTL 162): 0 pg/mL | TNF-α mean (TLR4; LPS 0 ng/ml): 0 pg/mL | TNF-α mean (TLR4; LPS 1 ng/ml, CTL 143): 0 pg/mL | TNF-α mean (TLR4; LPS 10 ng/ml, CTL 840): 0 pg/mL | TNF-α mean (TLR4; LPS 100 ng/ml, CTL 1091): 0 pg/mL | TNF-α mean (TLR7; Poly U 0 ng/ml): 0 pg/mL | TNF-α mean (TLR7; Poly U 1 ng/ml, CTL 44): 0 pg/mL | TNF-α mean (TLR7; Poly U 10 ng/ml, CTL 51): 0 pg/mL | TNF-α mean (TLR7; Poly U 100 ng/ml, CTL 229): 41 pg/mL | TNF-α mean (TLR9; ODN CpG 0 ng/ml): 0 pg/mL | TNF-α mean (TLR9; ODN CpG 1 ng/ml, CTL 0): 0 pg/mL | TNF-α mean (TLR9; ODN CpG 10 ng/ml, CTL 338): 0 pg/mL | TNF-α mean (TLR9; ODN CpG 100 ng/ml, CTL 1220): 0 pg/mL

phosphatidyl serine [PS, reference compound]
increase in Foxp3+/CD4+ compared to control (Splenocytes): 76% | fold difference between the ability of OPLS and PS to induce TNF-α ([1]; OPLS versus PS): 1,000 fold

N[C@@H](COP(=O)(O)O)C(=O)O [OPLS, O-phospho-L-serine, reference compound]
anti-FVIII titers versus FVIII control group (B57BL6 Mice): statistically lower than the FVIII control group | animals that developed anti-FVIII antibodies (B57BL6 Mice; 5 mg/injection + FVIII SC QW 4 weeks, FVIII control 8/8): 5/8 | increase in FoxP3+/CD4+ compared to the FVIII alone group (FoxP3+/CD4+ T-cell; 5 mg/injection co-mixed with FVIII 1 μg SC QW 4 weeks, splenocytes of one animal per group one week after last dose): 66% | FoxP3+/CD4+ T-cell (flow cytometry of splenocytes) (FoxP3+/CD4+ T-cell; 5 mg/injection co-mixed with FVIII SC QW 4 weeks, one animal per group, FVIII alone 2.94): 4.89

N[C@@H](CSCc1ccccc1)C(=O)O [SBLC, S-benzyl-L-cysteine]
TNF-α induction ([1]; FVIII antigen): failed to induce TNF-α

N[C@@H](COCc1ccccc1)C(=O)O [OBLS, O-Benzyl-L-serine]
TNF-α induction ([1]; FVIII antigen): failed to induce TNF-α

N[C@@H](Cc1ccc(OCc2ccccc2)cc1)C(=O)O [OBLT, O-benzyl-L-tyrosine]
TNF-α induction ([1]; FVIII antigen): failed to induce TNF-α

N[C@@H](CCS(=O)(=O)O)C(=O)O [LHA, L-homocysteic acid]
TNF-α production (suppression) versus OPLS ([1]; free compounds dosed in mM range, FVIII antigen): more potent inhibitors of TNF-α | TGF-β production versus OPLS [2]: more potent inducers of TGF-β

N[C@@H](CSc1ccccc1)C(=O)O [SPLC, S-phenyl-L-cysteine]
TNF-α induction ([1]; FVIII antigen): failed to induce TNF-α
